Test systems include OVCAR-3 ovarian; SK-OV-3 ovarian; MALME-3M melanoma; SF-268 CNS; NCI-H23 lung; SW-620 colon; UACC-62 melanoma; UO-31 renal; U251 CNS; NCI-H460 lung; CAKI-1 renal; PC-3 prostate; SNB-75 CNS; HCC-2998 colon.
Common to all, as to assay: NCI tumour cell line growth inhibition, 48 h

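96-well plates; 48 h exposure; 5 concentrations. Endpoints by linear interpolation between flanking doses. Not reached: highest tested concentration assigned. TGI denotes the concentration required for complete inhibition of growth.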

As to `COC1/C=C(C)/C=C/C(C)/C=C/C(=O)OC(/C(C)=C/C=C(\C)CNC(=O)[C@H](CO)NC=O)C(C)/C=C/C=C/C(OC)CC/C=C(C)/C=C/C1` (some centres not stated), the TGI was above 0.461 µM in the experiment with OVCAR-3 ovarian; above 1 µM in the experiment on SK-OV-3 ovarian; 0.385 µM with MALME-3M melanoma; above 1 µM in the experiment on SF-268 CNS; above 0.859 µM in the experiment on NCI-H23 lung; above 1 µM with SW-620 colon. The TGI in the experiment with UACC-62 melanoma was 0.0553 µM; with UO-31 renal it was above 0.735 µM; with U251 CNS it was above 1 µM; with NCI-H460 lung, above 1 µM; in the experiment on CAKI-1 renal, above 0.397 µM; in the experiment with PC-3 prostate, above 0.352 µM. The compound further displayed a TGI in the experiment on SNB-75 CNS above 1 µM.
As to `Cc1ccc([N+](=O)[O-])cc1S(=O)(=O)Nc1ccc(C2=NN(S(=O)(=O)c3cc([N+](=O)[O-])ccc3C)C(c3ccccc3)C2)cc1` (configuration not stated), the TGI in the experiment on OVCAR-3 ovarian is 89.4 µM; in the experiment on SK-OV-3 ovarian, above 100 µM; in the experiment with MALME-3M melanoma it was 62.8 µM; in the experiment on HCC-2998 colon, 59.8 µM; in the experiment with SF-268 CNS it was 56.7 µM; in the experiment on NCI-H23 lung it was 60.5 µM. Besides, the TGI with SW-620 colon is above 100 µM; in the experiment with UACC-62 melanoma, 44.7 µM; in the experiment on UO-31 renal it was above 100 µM; in the experiment with U251 CNS, above 100 µM; in the experiment on NCI-H460 lung, 55.5 µM; with CAKI-1 renal it was above 100 µM. Further, the values for the TGI in the experiment with PC-3 prostate and in the experiment with SNB-75 CNS were 98.8 µM and above 100 µM, respectively.
Regarding `CCCCN1C(=O)C2Cc3c([nH]c4ccccc34)C(c3cccc(O)c3)N2C1=O` (configuration not stated), the TGI was 30.2 µM in the experiment with OVCAR-3 ovarian; 30 µM in the experiment with SK-OV-3 ovarian; 34.2 µM in the experiment on HCC-2998 colon; 34.7 µM with SF-268 CNS; 37.9 µM in the experiment on NCI-H23 lung; 38.7 µM in the experiment on SW-620 colon. Moreover, the TGI with UACC-62 melanoma turned out to be 32.3 µM; in the experiment on UO-31 renal, 32.8 µM; in the experiment with U251 CNS it was 33.5 µM; with NCI-H460 lung it was 37.1 µM; in the experiment with CAKI-1 renal, 33.9 µM; with PC-3 prostate, 32.8 µM. This compound displayed a TGI in the experiment with SNB-75 CNS of 32.7 µM.
Take `C[C@H]1C[C@@H]2[C@H]([C@@H](O)C[C@@]3(C)[C@H]2CC[C@]3(O)C(=O)CO)[C@@]2(C)C=CC(=O)C=C12`: the TGI in the experiment on OVCAR-3 ovarian, in the experiment on SK-OV-3 ovarian, in the experiment on MALME-3M melanoma, in the experiment on HCC-2998 colon, in the experiment on NCI-H23 lung and with SW-620 colon was above 100 µM each time. Moreover, the TGI in the experiment on UACC-62 melanoma, in the experiment with UO-31 renal, in the experiment on NCI-H460 lung and in the experiment on CAKI-1 renal was above 100 µM throughout.
For the compound `CC(=O)Oc1ccccc1`, the TGI in the experiment on OVCAR-3 ovarian, with MALME-3M melanoma, with SF-268 CNS, in the experiment on NCI-H23 lung, in the experiment on SW-620 colon and in the experiment on UACC-62 melanoma was above 100 µM each time. The TGI in the experiment with UO-31 renal, in the experiment with U251 CNS, in the experiment with NCI-H460 lung, in the experiment with CAKI-1 renal and in the experiment with SNB-75 CNS was above 100 µM throughout.
For `COc1cc(C(=O)NC2CCc3cc(OC)c(OC)c(OC)c3-c3ccc(OC)c(=O)cc32)cc(OC)c1OC` (configuration not stated), the TGI in the experiment on OVCAR-3 ovarian is 0.261 µM; in the experiment on SK-OV-3 ovarian it was 20.9 µM; in the experiment on MALME-3M melanoma, 85.3 µM; with HCC-2998 colon it was 1.16 µM; with SF-268 CNS, 42.4 µM; with NCI-H23 lung, 12.8 µM. Further, the TGI was above 100 µM in the experiment on SW-620 colon; 45.9 µM with UACC-62 melanoma; above 98 µM with UO-31 renal; 33.4 µM in the experiment on U251 CNS; 15.3 µM in the experiment on NCI-H460 lung; 34 µM in the experiment with CAKI-1 renal. The values for the TGI with PC-3 prostate and with SNB-75 CNS were above 100 µM and 18.3 µM, respectively.
`c1ccc2c(CSCc3cccc4ccccc34)cccc2c1`: the TGI in the experiment with OVCAR-3 ovarian, in the experiment on MALME-3M melanoma, in the experiment on HCC-2998 colon, with SF-268 CNS, in the experiment with NCI-H23 lung and in the experiment on SW-620 colon was above 100 µM each time. The TGI in the experiment with UACC-62 melanoma, in the experiment on UO-31 renal, with U251 CNS, in the experiment on NCI-H460 lung, in the experiment on CAKI-1 renal and in the experiment on PC-3 prostate was above 100 µM in each case. This compound returned a TGI in the experiment on SNB-75 CNS above 100 µM.
With `Cc1c2ccccc2c(C2C3C(=O)N(c4ccc(Br)cc4)C(=O)C3ON2C(C(N)=O)c2ccccc2)c2ccccc12` (configuration not stated), the TGI in the experiment with OVCAR-3 ovarian was 12.2 µM; with SK-OV-3 ovarian, 46 µM; in the experiment on MALME-3M melanoma, 34.1 µM; in the experiment on HCC-2998 colon, 26.6 µM; in the experiment with SF-268 CNS it was above 100 µM; with NCI-H23 lung, 26.9 µM. For the same compound, the TGI with SW-620 colon was above 100 µM; in the experiment with UACC-62 melanoma, 40.4 µM; in the experiment on UO-31 renal, 34.6 µM; with U251 CNS it was 8.94 µM; in the experiment with NCI-H460 lung, 22.2 µM; in the experiment with CAKI-1 renal, 21.3 µM. Moreover, the values for the TGI in the experiment with PC-3 prostate and with SNB-75 CNS were above 100 µM and 17.3 µM, respectively.
Turning to `COc1cc2c(c(OC)c1OC)-c1ccc(OC)c(=O)cc1C(NC(=O)COc1ccccc1)CC2` (configuration not stated), the TGI in the experiment with OVCAR-3 ovarian is below 0.0355 µM; in the experiment on SK-OV-3 ovarian, 0.766 µM; in the experiment on MALME-3M melanoma, above 100 µM; in the experiment on HCC-2998 colon it was 1.04 µM; with SF-268 CNS, 61.6 µM; with SW-620 colon it was above 95.2 µM. For the same compound, the TGI was above 100 µM in the experiment on UACC-62 melanoma; above 100 µM in the experiment with UO-31 renal; 13 µM in the experiment with U251 CNS; above 10.6 µM in the experiment with NCI-H460 lung; 15.3 µM in the experiment on CAKI-1 renal; above 100 µM in the experiment with PC-3 prostate. The same compound yielded a TGI in the experiment on SNB-75 CNS of 10.5 µM.
Take `C[C@@H]1C[C@H]2[C@@H]3CCC4=CC(=O)C=C[C@]4(C)[C@@]3(F)[C@@H](O)C[C@]2(C)[C@@]1(O)C(=O)CO`: the TGI in the experiment on OVCAR-3 ovarian, in the experiment with SK-OV-3 ovarian, in the experiment on MALME-3M melanoma, in the experiment with NCI-H23 lung, in the experiment on SW-620 colon and with UACC-62 melanoma was above 100 µM throughout. In addition, the TGI in the experiment on UO-31 renal and in the experiment on CAKI-1 renal was above 100 µM in each case.
`O=C(C=P(c1ccccc1)(c1ccccc1)c1ccccc1)c1ccc(-c2cccs2)cc1`: the TGI is 8.52 µM in the experiment on OVCAR-3 ovarian; 20.6 µM with SK-OV-3 ovarian; 13.4 µM in the experiment on MALME-3M melanoma; 6.46 µM in the experiment on HCC-2998 colon; 27.1 µM in the experiment on SF-268 CNS; 56.2 µM in the experiment on NCI-H23 lung. Also, the TGI in the experiment with SW-620 colon is 21.7 µM; with UACC-62 melanoma it was 10.7 µM; with UO-31 renal, 14.4 µM; in the experiment on U251 CNS, 14.7 µM; with NCI-H460 lung, 12.2 µM; in the experiment with CAKI-1 renal, 19.6 µM. Further, the values for the TGI in the experiment on PC-3 prostate and in the experiment with SNB-75 CNS were 15.7 µM and 8.86 µM, respectively.
